According to article PMC3656107, “Polymorphisms in the F8 Gene and MHC-II Variants as Risk Factors for the Development of Inhibitory Anti-Factor VIII Antibodies during the Treatment of Hemophilia A: A Computational Assessment” (PLoS Computational Biology, 2013):

Key:
[1] = target: T1, MHC-II DRB1*15:01 (Homo sapiens, UniProt P01903+P01911); test: Cell-free REVEAL class II stability assay; conditions: half-life of peptide-MHC-II complex (h, capped at 120) x Binding Score / 100, conformational ELISA
T1 construct: purchased ProImmune
In short: (§1)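 Peptide–MHC-II complex formation followed over 96 hr at 10°C, with samples snap-frozen at set time points and assembled complex detected by conformational anti-HLA ELISA. On- and off-rates come from one-phase association/dissociation fits; half-lives derive from rate constants, and stability score = half-life × Binding Score / 100.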

[2] = target: T2, MHC-II DRB1*07:01 (Homo sapiens, UniProt P01903+P01911, A100R/A102G/A103Q/D57E/D86V/E43K/F76Y/K127E/L162R/M171V/P40G/Q125H/Q99D/R33Q/R42Y/R54Q/S133A/S66F/T210M/V115G/Y107V/Y59L/Y89S); test: Cell-free REVEAL class II stability assay; conditions: half-life of peptide-MHC-II complex (h, capped at 120) x Binding Score / 100, conformational ELISA
In short: as §1

[3] = target: T3, MHC-II DRB1*03:01 (Homo sapiens, UniProt P01903+P01911, A100K/A102G/A103R/A169T/F55Y/I96L/K41T/L162R/M171V/P40S/Q125H/Q178H/Q39Y/R42S/S66N/T106N/T262R/W38E/Y61H); test: Cell-free REVEAL class II stability assay; conditions: half-life of peptide-MHC-II complex (h, capped at 120) x Binding Score / 100, conformational ELISA
T3 sequence (P01903 26-254 limits assumed, other chains not shown): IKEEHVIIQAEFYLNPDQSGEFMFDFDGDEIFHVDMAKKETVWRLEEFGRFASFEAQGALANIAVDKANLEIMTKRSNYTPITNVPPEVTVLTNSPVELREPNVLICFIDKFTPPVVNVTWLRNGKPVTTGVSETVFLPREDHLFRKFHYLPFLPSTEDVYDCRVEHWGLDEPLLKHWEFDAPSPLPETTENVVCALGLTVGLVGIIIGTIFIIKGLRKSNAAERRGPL
In short: as §1

[4] = target: T4, MHC-II DRB1*15:03 (Homo sapiens, UniProt P01903+P01911, Y59H); test: Cell-free REVEAL class II stability assay; conditions: half-life of peptide-MHC-II complex (h, capped at 120) x Binding Score / 100, conformational ELISA
T4 construct: purchased ProImmune
T4 sequence (P01903 26-254, other chains not shown): as the sequence (P01903 26-254 limits assumed, other chains not shown) above
In short: as §1

[5] = target: T5, MHC-II DRB1*04:01 (Homo sapiens, UniProt P01903+P01911, A100K/A169T/F76Y/I96L/K127E/L162R/M171V/N62H/P40V/Q125Y/R42H/S133A/S149N/S66Y/V115G/V209L/W38E); test: Cell-free REVEAL class II stability assay; conditions: half-life of peptide-MHC-II complex (h, capped at 120) x Binding Score / 100, conformational ELISA
In short: as §1

[6] = target: T6, MHC-II DRB1*11:01 (Homo sapiens, UniProt P01903+P01911, A100R/A169T/A87E/I96F/K41T/L162R/M171V/P40S/Q125H/Q178H/Q39Y/Q99D/R42S/S66Y/T262R/V115G/W38E); test: Cell-free REVEAL class II stability assay; conditions: half-life of peptide-MHC-II complex (h, capped at 120) x Binding Score / 100, conformational ELISA
T6 sequence (P01903 26-254 limits assumed, other chains not shown): as above
In short: as §1

[7] = target: T1, MHC-II DRB1*15:01; test: Cell-free REVEAL class II binding assay; conditions: signal of test peptide as percentage of allele-specific positive control peptide, fluorescence, conformation-specific monoclonal antibody
In short: (§2)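 Test peptides incubated with MHC-II protein; correctly folded complexes then detected with a specific monoclonal antibody giving a fluorescence signal. Each peptide scored quantitatively against that allele's positive control epitope, expressed as a percentage.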

[8] = target: T2, MHC-II DRB1*07:01; test: Cell-free REVEAL class II binding assay; conditions: signal of test peptide as percentage of allele-specific positive control peptide, fluorescence, conformation-specific monoclonal antibody
In short: as §2

[9] = target: T3, MHC-II DRB1*03:01; test: Cell-free REVEAL class II binding assay; conditions: signal of test peptide as percentage of allele-specific positive control peptide, fluorescence, conformation-specific monoclonal antibody
In short: as §2

[10] = target: T4, MHC-II DRB1*15:03; test: Cell-free REVEAL class II binding assay; conditions: signal of test peptide as percentage of allele-specific positive control peptide, fluorescence, conformation-specific monoclonal antibody
In short: as §2

[11] = target: T5, MHC-II DRB1*04:01; test: Cell-free REVEAL class II binding assay; conditions: signal of test peptide as percentage of allele-specific positive control peptide, fluorescence, conformation-specific monoclonal antibody
In short: as §2

[12] = target: T6, MHC-II DRB1*11:01; test: Cell-free REVEAL class II binding assay; conditions: signal of test peptide as percentage of allele-specific positive control peptide, fluorescence, conformation-specific monoclonal antibody
In short: as §2

Row | Sequence | Stability Index [1] | Stability Index [2] | Stability Index [3] | Stability Index [4] | Stability Index [5] | Stability Index [6] | Binding Score [7] [%] | Binding Score [8] [%] | Binding Score [9] [%] | Binding Score [10] [%] | Binding Score [11] [%] | Binding Score [12] [%]
1 | YISQFIIMYSLDGKK [synthetic wild type FVIII 15 mer peptide] | 723.1 | 0.0 | 0.2 | 1.7 | 30.9 | 33.1 | 602.6 | 0.0 | 1.8 | 1.4 | 44.5 | 114.1
2 | YNIYPHGITDVRPLY [synthetic wild type FVIII 15 mer peptide, region of ns-SNP R484H] | 2.0 | 0.1 | 0.0 | 0.1 | 0.2 | 1.1 | 40.8 | 0.1 | 0.2 | 0.1 | 2.1 | 35.8
3 | YPHGITDVRPLYSRR [synthetic wild type FVIII 15 mer peptide, region of ns-SNP R484H] | 0.5 | 0.1 | 5.2 | 0.1 | 0.0 | 1.2 | 0.4 | 0.1 | 4.8 | 0.1 | 0.1 | 46.7
4 | YSLDGKKWQTYRGNS [synthetic wild type FVIII 15 mer peptide] | 3.0 | 0.0 | 0.0 | 0.0 | 0.1 | 1.1 | 11.8 | 0.0 | 0.0 | 0.2 | 0.9 | 23.5
5 | YTFKHKMVYEDTLTL [synthetic wild type FVIII 15 mer peptide] | 1.1 | 0.0 | 0.0 | 0.1 | 0.5 | 13.7 | 0.9 | 0.0 | 0.8 | 0.0 | 5.0 | 31.6
